Measurements as given in patent US20140127159A1, “HCV Combination Therapy” (Stella ApS, priority 2011, published 2014).
Values joined by “and” are separate entries in the source; they are usually repeats but may differ in a detail not shown here. Equal values may be shown once. “Also recorded” adds a separate entry of the source. Read-outs that look alike come from different tables or passages of the source.

Key:
[1] = test system: Huh-luc/neo-ET HCV genotype Ib replicon cells; format: cell-based; conditions: 28 days culture under G418 selective pressure, crystal violet
Procedure: Cell culture and Assay setup: The reporter cell line Huh-luc/neo-ET was obtained and prepare as described previously. Cells were plated into 10 cm tissue culture dishes at a density of 3×10^5 cells per plate in culture medium containing 250 μg/ml G418 and incubated for 24 hours at 37° C. in an environment of 5% CO2. Following the 24 hour incubation, dilutions of SPC3649, SPC4729, or telaprevir were prepared in cell culture medium (as above) with 750 μg/ml G418. Each of the dilutions was added to duplicate plates and the plates were incubated at 37° C. in an environment of 5% CO^2. Two additional plates received cell culture medium with 750 μg/ml G418 as a no-treatment control. […] The final concentration of SPC4729 was 10.0 μM. […] Following 28 days of passage, one set of dishes was stained with crystal violet and the other set of plates was utilized for expansion and establishment of resistant cell culture stocks.
Huh-luc/neo-ET HCY genotype Ib replicon cells were cultured under selective pressure in the presence of 750 μg/mL G4 I8 with and without four independent fixed concentrations of SPC3649 anti-miR oligonucleotide, or telaprevir, or one concentration of scrambled oligonucleotide SPC4729 for 28 days in tissue culture plates. Duplicate tissue culture dishes were established and maintained for each culture condition. […]

[2] = test system: HCV genotype 1b replicon NS3 A156T; test: Transient transfection replicon assay in Huh 7 cells, NS3 A156T; format: cell-based; conditions: EC50 mutant / EC50 wild-type; mean of two experiments
Procedure: (§2) Huh 7 cells were transfected with either the wild-type or the mutant RNA constructs by electroporation. Luciferase activity was measured 72 hours after compound treatment and EC50 values determined from dose-response curves. Fold resistance was expressed as the ratio of the EC50 for mutant HCV replicon to the EC50 for wild-type HCV replicon.
(§3) Huh 7 cells were transfected with either the wild type or the mutant RNA constructs by electroporation. Luciferase activity was measured 72 hours after compound treatment and EC50 values determined from dose-response curves. Fold resistance was expressed as the ratio of the EC50 for mutant HCV replicon to the EC50 for wild-type HCV replicon. Results are expressed as the mean of two individual experiments.

[3] = test system: HCV genotype 1b replicon NS5B S282T; test: Transient transfection replicon assay in Huh 7 cells, NS5B S282T; format: cell-based; conditions: EC50 mutant / EC50 wild-type; mean of two experiments
Procedure: as §2, §3

[4] = test system: HCV genotype 1b replicon NS5A Y93H; test: Transient transfection replicon assay in Huh 7 cells, NS5A Y93H; format: cell-based; conditions: EC50 mutant / EC50 wild-type; mean of two experiments
Procedure: as §2, §3

HCV genotype 1 = test: Phase 2a clinical trial, miravirsen monotherapy; format: in vivo, patients; conditions: for mean of the maximum HCV RNA decline from baseline: 5 weekly doses subcutaneously over 29 days
Procedure: Thirty-six treatment-naïve chronic HCV genotype 1 infected patients were enrolled into 3 sequential dosing cohorts and received 5 weekly doses of miravirsen 3, 5, or 7 mg/kg (n=27) or placebo (n=9) subcutaneously over 29 days and were followed up until week 18.

[5] = test system: HCV genotype 1b replicon NS3 R155K; test: Transient transfection replicon assay in Huh 7 cells, NS3 R155K; format: cell-based; conditions: EC50 mutant / EC50 wild-type; mean of two experiments
Procedure: as §2, §3

all HCV genotypes = test: In vitro activity against HCV genotypes; format: cell-based
[6] = test system: HCV genotype 1b replicon NS5B M423I; test: Transient transfection replicon assay in Huh 7 cells, NS5B M423I; format: cell-based; conditions: EC50 mutant / EC50 wild-type; mean of two experiments
Procedure: as §2, §3

Huh-luc/neo-ET = test system: Huh-luc/neo-ET
Procedure: (§1) The anti-viral efficacy and cellular toxicity of non-transfected antimiR oligonucleotide in combination with approved and experimental anti-HCV therapeutics (boceprevir or telepravir, was determined in the reporter cell line Huh-luc/neo-ET. This cell line harbors the persistently replicating I389luc-ubi-neo/NS3-3′/ET replicon containing the firefly luciferase gene-ubiquitin-neomycin phosphotransferase fusion protein and EMCV IRES driven NS3-5B HCV coding sequences containing the ET tissue culture adaptive mutations (E1202G, T1208I, and K1846T). Eight dilutions of non-transfected antimiR oligonucleotide (bracketing the calculated EC50) were evaluated in triplicate on duplicate sets of three plates with five dilutions of each of the control compounds (bracketing the calculated EC50). One set of plates was used for the determination of cellular toxicity and the other set of plates is used for the determination of anti-viral efficacy. The efficacy and toxicity results was quantified with firefly luciferase activity and XTT dye reduction, respectively, and the results of the assay is imported into the Prichard and Shipman MacSynergy II software program. The MacSynery II analysis includes calculation of the dose response of the two (or more) compounds when used alone followed by calculation of the expected additive level of antiviral inhibition or toxicity when the compounds are used together based on the individual dose response curves. The expected level of activity at each of the concentration data points is compared to the experimentally determined antiviral activity in the assay. The expected activity was subtracted from the realized activity, yielding a negative, zero or positive value.
The reporter cell line Huh-luc/neo-ET was obtained from Dr. Ralf Bartenschlager (Department of Molecular Virology, Hygiene Institute, University of Heidelberg, Germany) by ImQuest BioSciences. This cell line harbors the persistently replicating 1389luc-ubi-neo/NS3-3′IET replicon containing the firefly luciferase gene-ubiquitinneomycin phosphotransferase fusion protein and EMCV IRES driven NS3-5B HCV coding sequences containing the ET tissue culture adaptive mutations (E 1202G, T12081, and KI846T). A stock culture of the Huh-luc/neo-ET was expanded by culture in DMEM supplemented with 10% FBS, 2 mM glutamine, penicillin (100 IU/mL)/streptomycin (100 f.Ig/mL) and IX nonessential amino acids plus I mg/ml G418. Prior to plating, the cells were split 1:4 and cultured for two passages in the same medium plus 250 f.Ig/mL G418. The cells were treated with trypsin and enumerated by staining with trypan blue and seeded into 96-well tissue culture plates at a cell culture density 5.0×10^3 cells per well in a volume of 85 f.IL per well and incubated at […] in an environment of 5% CO2 for 24 hours. Six plates were established for the determination of combination efficacy (EC50) and cytotoxicity (TC50) for each of the compound combinations (three plates each for efficacy and toxicity). […] Following incubation, the plates were assessed for anti-HCV activity by measurement of luciferase reporter activity and cellular cytotoxicity by XTT staining.

[7] = test system: HCV genotype Ib replicon in Huh-luc/neoET cells; format: cell-based; conditions: for Efficacy, Antagonism vol: in combination with miravirsen (SPC3649), 95% confidence interval, median (≧3 experiments) or individual values
Procedure: as §1
This example was based on an in vitro evaluation of SPC3649 (miravirsen) in combination with anti-HCV drugs and experimental compounds. […] The combination antiviral assays were performed using the reporter cell line Huh-luc/neo-ET, which contains a bicistronic HCV genotype Ib replicon. Combination data were analyzed using MacSynergy II software at the 95%, confidence interval. The in vitro combination assays were designed to define the antiviral interaction of the two compounds and to determine if their interaction was synergistic or antagonistic.
The reporter cell line Huh-luc/neo-ET was obtained from Dr. Ralf Bartenschlager (Department of Molecular Virology, Hygiene Institute, University of Heidelberg, Germany) by ImQuest BioSciences. This cell line harbors the persistently replicating 1389luc-ubi-neo/NS3-3′IET replicon containing the firefly luciferase gene-ubiquitinneomycin phosphotransferase fusion protein and EMCV IRES driven NS3-5B HCV coding sequences containing the ET tissue culture adaptive mutations (E 1202G, T12081, and KI846T). […]

| Molecule | Fold Resistance NS3 A156T [2] | Fold Resistance NS5B S282T [3] | Fold Resistance NS5A Y93H [4] | Fold Resistance NS3 R155K [5] | Fold Resistance NS5B M423I [6] | Cytotoxicity, Synergy vol (Huh-luc/neo-ET; human) | Efficacy, Antagonism vol [7] | further results |
| --- | --- | --- | --- | --- | --- | --- | --- | --- |
| 5′-^mCs^ocsAs^otstsGs^oTs^ocsas^mCs^oas^mCs^ots^mCs^omC^o-3′ (CCATTGTCACACTCC; all phosphorothioate, sugars by position and methylation of C not given here; further chemistry not fully specified) [miravirsen] | 1.0 fold | 1.9 fold | 0.9 fold | 1.2 fold | 1.7 fold |  |  | distinct individual resistant clonal populations ([1]; listed as SPC3649): failed to produce distinct individual resistant clonal populations; also recorded: distinct individual resistant clonal populations were not produced; mean of the maximum HCV RNA decline from baseline (HCV genotype 1; 3 mg/kg): 1.2 log10 IU/mL; mean of the maximum HCV RNA decline from baseline (HCV genotype 1; 5 mg/kg): 2.9 log10 IU/mL; mean of the maximum HCV RNA decline from baseline (HCV genotype 1; 7 mg/kg): 3.0 log10 IU/mL; safety and tolerability, adverse events (HCV genotype 1; 3, 5 or 7 mg/kg): no dose-limiting adverse events; also recorded: safe, well-tolerated; escape mutations / emergence of viral resistance (HCV genotype 1; HCV genome miR-122 binding sites): no escape mutations were observed; also recorded: not seen; efficacy against HCV genotypes in vitro (all HCV genotypes): effective against all HCV genotypes in vitro |
| C[C@@]1(O)[C@H](O)[C@@H](CO)O[C@H]1n1ccc(N)nc1=O [2′-C-Methylcytidine] | 0.9 fold |  | 1.0 fold | 0.8 fold | 1.0 fold |  |  |  |
| COC(=O)N[C@H](C(=O)N1CCC[C@H]1c1nc(-c2ccc(-c3ccc(-c4c[nH]c([C@@H]5CCCN5C(=O)[C@@H](NC(=O)OC)C(C)C)n4)cc3)cc2)c[nH]1)C(C)C [BMS 790052, Carbamic acid, N,N′-[[1,1′-biphenyl]-4,4′-diylbis[1H-imidazole-5,2-diyl-(2S)-2,1-pyrrolidinediyl[(1S)-1-(1-methylethyl)-2-oxo-2,1-ethanediyl]]]bis-, C,C′-dimethyl ester] |  |  | 29.9 fold |  |  | 0/−21.9 μM^2% | −24.5 μM^2% and −0.06 μM^2% | Cytotoxicity, Antagonism vol (Huh-luc/neo-ET; human): 0/−21.9 μM^2% |
| CCC[C@H](NC(=O)[C@@H]1[C@H]2CCC[C@H]2CN1C(=O)[C@@H](NC(=O)[C@@H](NC(=O)c1cnccn1)C1CCCCC1)C(C)(C)C)C(=O)C(=O)NC1CC1 [Telaprevir, (1S,3aR,6aS)-2-[(2S)-2-[[(2S)-2-Cyclohexyl-2-(pyrazine-2-carbonylamino)acetyl]amino]-3,3-dimethylbutanoyl]-N-[(3S)-1-(cyclopropylamino)-1,2-dioxohexan-3-yl]-3,3a,4,5,6,6a-hexahydro-1H-cyclopenta[c]pyrrole-1-carboxamide] |  | 1.0 fold |  | 4.6 fold |  |  | 0/−3.2 (±3.08/6.89) μM^2% | Cytotoxicity, Antagonism vol (Huh-luc/neo-ET; in combination with miravirsen (SPC3649), 95% confidence interval): 0/−5.05 μM^2%; Cytotoxicity, Antag Vol (Huh-luc/neo-ET; in combination with ribavirin, 95% confidence level): 0.00/−50.9 μM^2%; distinct individual resistant clonal populations [1]: production of distinct individual resistant clonal populations; Efficacy, Antag Vol ([7]; in combination with ribavirin, 95% confidence level, individual values): 37.5/22.6; μM^2% |
| CC(C)(C)C#Cc1cc(N(C(=O)[C@H]2CC[C@H](C)CC2)[C@H]2CC[C@H](O)CC2)c(C(=O)O)s1 [VX-222] |  |  |  |  | 4.4 fold | 0/−28.6; 0/0 μM^2% | −34.44 μM^2% |  |
